From patent US20240109890A1, “BRIDGED HETEROCYCLYL-SUBSTITUTED PYRIMIDINE COMPOUNDS, PREPARATION METHOD AND MEDICAL USE THEREOF” (THE NATIONAL INSTITUTES OF PHARMACEUTICAL R&D CO., LTD., priority 2021, published 2024)

What was measured:
[1] = target: JAK1 kinase (Homo sapiens (Human), UniProt P23458); assay: In vitro inhibitory activity on JAK1 kinase (ADP-Glo Kinase Assay); format: biochemical; details: JAK1 4 nM, 1 mM ATP, IRS1 substrate
Description: Experimental materials: JAK1 kinase (Invitrogen, PV4744), ATP (Promega, V915B), ADP-Glo Kinase Assay (Promega, V9101), IRS1 (Signalchem, 140-58-1000). Sample preparation: The compounds of the present invention and the control product were dissolved in DMSO solvent respectively to formulate into 10 mM mother liquor. The final reaction maximum concentration of the compound was 10 μM, 3-fold dilution, 10 concentration gradients, and duplicate wells for each concentration gradient. Experimental process: 0.1 μL of the compound to be tested was transferred into a 384-well reaction plate (PE, 6007290) via Echo and centrifuged at 1000 rpm/min for 1 min. 5 μL of JAK1 kinase (final concentration of 4 nM) was transferred into the 384-well reaction plate, which was then centrifuged at 1000 rpm/min for 1 min, and incubated at 25° C. for 15 min. 5 μL of substrate mixture (1 mM ATP, IRS1 0.05 mg/ml, kinase buffer solution) was transferred into the 384-well reaction plate, which was then centrifuged at 1000 rpm/min for 1 min, and incubated at 25° C. for 60 min. 10 μL of ADP-Glo was transferred into the 384-well reaction plate, which was then centrifuged at 1000 rpm/min for 1 min, and incubated at 25° C. for 40 min. 20 μL of test solution was transferred into the 384-well reaction plate, which was then centrifuged at 1000 rpm/min for 1 min and incubated at 25° C. for 40 min. RLU (Relative luminescence unit) signal was read by using an Envision multifunctional plate reader. The signal intensity was used to characterize the degree of the kinase activity. […] IC50 value of 0-100 nM is shown as A, IC50 value of 100-300 nM is shown as B, IC50 value of 300-1000 nM is shown as C, and IC50 value which is greater than 1000 nM is shown as D. NT means not tested.

[2] = system: IFN-2α-stimulated TYK2/JAK1-mediated pathway; assay: Inhibition of STAT3 signaling pathway of human whole blood (IFN-2α induced pSTAT3, flow cytometry); format: cell-based; details: IFN-2α stimulation, CD3/pSTAT3 staining
Description: Sample preparation: The compounds of the present invention and the control were dissolved in DMSO solvent respectively to formulate into 10 mM mother liquor. The final reaction maximum concentration of the compound was 10 μM, 3-fold dilution, 10 concentration gradients, and duplicate wells for each concentration gradient.
Experimental process: 20 μL of the compound of the present invention was added to a flow cytometer tube (BD, 352052) containing 180 μL of anticoagulant sodium heparin. 20 μL of PBS was added to the control tube. The sample was incubated at 37° C. for 30 min. 2 μL of stimulating factor was added and then incubated at 37° C. for 20 min. 1 mL of erythrocyte lysate was added, and the sample was repeatedly inverted 5 to 10 times or vortexed and then incubated at 37° C. for 10 min. The sample was centrifuged at 600 g for 6 to 8 min. The supernatant was discarded. The mixture was vortexed until the precipitate was suspended. The cells were washed with 3 mL of PBS and centrifuged at 600 g for 6 to 8 min. The supernatant was discarded. The mixture was vortexed until the precipitate was suspended. 1 mL of membrane breaking solution was added, and the system was mixed gently, incubated on ice for 30 min, and centrifuged at 600 g for 6 to 8 min. The supernatant was discarded. The mixture was vortexed until the precipitate was suspended. The cells were washed. 3 mL of PBS was added. […]

[3] = Pharmacokinetic study in rats; format: in vivo, rat; details: for F / AUC(0-t) / Cmax / half-life: male SD rats, i.v. 1 mg/kg, p.o. 5 mg/kg; for AUC(0-t) / Cmax / half-life: rat, plasma, route of this value not stated; for pharmacokinetic properties (overall statement): rats
Description: Sample preparation: The compounds of Examples 1-a and 1-b were formulated into 0.2 mg/mL and 0.5 mg/mL solutions with 20% cyclodextrin.
Experimental method: Male SD rats (Beijing Vital River Laboratory Animal Technology Co., Ltd.) were used, the intravenous dose was 1 mg/kg (intravenously, i.v). Blood was collected from the canthus venous plexus before administration and at 0, 5 minutes, 15 minutes, 30 minutes, 1 hour, 2 hours, 4 hours, 6 hours and 8 hours after administration. The oral dose was 5 mg/kg (oral, p.o). Blood was collected from the canthus venous plexus before administration and at 15 minutes, 30 minutes, 1 hour, 2 hours, 4 hours, 6 hours and 8 hours after administration. The blood was anticoagulated with sodium heparin, centrifuged at 3500 rpm for 10 minutes at 4° C. The plasma was obtained and stored at −20° C. until testing.
50 μL of the plasma sample melted at room temperature was precisely measured and placed in a 1.5 mL EP tube, followed by adding 400 μL of verapamil internal standard working solution (China National Institute for Drug Control). The EP tube was vortexed vigorously for 1 minute, and centrifuged at 16000 rpm for 10 minutes. The supernatant was collected, filtered with a 0.22 μm organic membrane (AS081320-T, Agela Technologies), and added to an injection vial. The plasma concentration was obtained by LC/MS (Waters UPLC I Class/ TQ-S micro). The main pharmacokinetic parameters of compounds 1-a and 1-b in rats were obtained by DAS3.3.0 software.

[4] = system: AIA model; assay: AIA pharmacodynamic study in rats (complete Freund's adjuvant, arthritis scoring); format: in vivo, rat; details: female Lewis rats, arthritis score; for efficacy in the AIA model versus reference PF-06700841: low dose 1 mg/kg and high dose 3 mg/kg groups
Description: Experimental materials: Complete Freund's adjuvant (Chondrex, 7027); positive control compound PF-06700841, which has a structure of
Experimental process: The in vivo efficacy of the compounds of the present invention was investigated. 8-Week-old female Lewis rats (Beijing Vital River Laboratory Animal Technology Co., Ltd.) were subcutaneously injected with 0.1 mL of complete Freund's adjuvant at a single site on the base of their tails, and grouped 13 days after modeling. 8 groups were divided: the normal group, the model group, the PF-06700841 low dose group, the PF-06700841 high dose group, the compound 1-a low dose group, the compound 1-a high dose group, the compound 1-b low dose group, and the compound 1-b high dose group (the compounds to be tested were formulated into 0.1 mg/mL and 0.3 mg/mL solutions with 20% cyclodextrin solution). 20% cyclodextrin was administered to the model group, 1 mg/kg of the test compound was administered to the low dose group, and 3 mg/kg of the test compound was administered to the high dose group. The scores were evaluated every 2 days after administration. Scoring criteria: 0 point: no redness and swelling; 1 point: mild redness and swelling of ankle joints and wrist joints; 2 points: moderate redness and swelling of ankle joints and wrist joints; 3 points: severe redness and swelling of the paw including the fingertips; 4 points: maximal inflammation of the extremities, including multiple joints. The scoring results were analyzed by Graph prism9.0 software.
FIG. 1 is a graph showing the rat AIA pharmacodynamic scoring results of the compounds of the present invention.

Sequence of JAK1 kinase (P23458 whole entry): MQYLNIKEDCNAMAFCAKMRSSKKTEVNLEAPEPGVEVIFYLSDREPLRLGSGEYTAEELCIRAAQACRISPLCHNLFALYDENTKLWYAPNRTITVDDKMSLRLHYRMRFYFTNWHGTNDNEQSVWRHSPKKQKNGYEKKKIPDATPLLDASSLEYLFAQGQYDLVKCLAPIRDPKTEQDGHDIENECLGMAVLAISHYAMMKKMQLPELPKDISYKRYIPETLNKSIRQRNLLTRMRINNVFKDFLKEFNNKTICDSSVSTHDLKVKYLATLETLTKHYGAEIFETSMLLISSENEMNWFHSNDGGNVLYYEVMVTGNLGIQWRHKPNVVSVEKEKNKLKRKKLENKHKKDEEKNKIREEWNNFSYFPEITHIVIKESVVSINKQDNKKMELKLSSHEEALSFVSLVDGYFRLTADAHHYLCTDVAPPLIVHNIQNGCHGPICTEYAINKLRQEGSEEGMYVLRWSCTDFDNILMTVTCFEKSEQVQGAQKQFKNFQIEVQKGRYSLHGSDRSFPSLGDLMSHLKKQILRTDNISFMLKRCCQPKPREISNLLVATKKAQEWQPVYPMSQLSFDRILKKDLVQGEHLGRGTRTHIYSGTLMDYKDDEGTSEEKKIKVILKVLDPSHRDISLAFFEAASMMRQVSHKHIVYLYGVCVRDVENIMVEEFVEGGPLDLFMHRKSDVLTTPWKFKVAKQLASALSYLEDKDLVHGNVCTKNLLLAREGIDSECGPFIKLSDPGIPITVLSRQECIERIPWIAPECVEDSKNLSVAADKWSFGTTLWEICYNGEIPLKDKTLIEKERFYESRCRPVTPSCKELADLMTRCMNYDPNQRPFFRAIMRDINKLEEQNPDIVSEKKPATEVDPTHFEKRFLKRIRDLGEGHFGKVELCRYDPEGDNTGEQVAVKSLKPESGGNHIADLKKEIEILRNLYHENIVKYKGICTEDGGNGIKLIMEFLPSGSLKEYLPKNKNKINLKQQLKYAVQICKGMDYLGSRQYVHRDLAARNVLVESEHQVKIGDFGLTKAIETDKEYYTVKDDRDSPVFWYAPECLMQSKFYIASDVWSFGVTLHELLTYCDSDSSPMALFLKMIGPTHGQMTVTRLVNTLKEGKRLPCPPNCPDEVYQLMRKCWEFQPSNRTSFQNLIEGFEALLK

SMILES | IC50 [1] | IC50 [2] | F [3] | AUC(0-t) [3] | Cmax [3] | half-life [3] | pharmacokinetic properties (overall statement) [3] | efficacy in the AIA model versus isomer 1-b ([4]; 1 mg/kg and 3 mg/kg) | efficacy in the AIA model versus reference PF-06700841 [4]
Cn1cc(Nc2nccc(C3=CC4CCC(C3)N4C(=O)[C@H]3C[C@@H]3F)n2)cn1 (stereo partly drawn) [Compound 2, ((1R,2S)-2-fluorocyclopropyl)(3-(2-((1-methyl-1H-pyrazol-4-yl)amino)pyrimidin-4-yl)-8-azabicyclo[3.2.1]oct-2-en-8-yl)methanone] | 300 to 1000 nM |  |  |  |  |  |  |  | 
Cn1cc(Nc2nccc(C3=C[C@@H]4CC[C@H](C3)N4C(=O)[C@@H]3C[C@H]3F)n2)cn1 [Compound 1-a, ((1S,2R)-2-fluorocyclopropyl)((1S,5R)-3-(2-((1-methyl-1H-pyrazol-4-yl)amino)pyrimidin-4-yl)-8-azabicyclo[3.2.1]oct-2en-8-yl)methanone] | < 100 nM | < 100 nM | A (F>50% is shown as A) | > 1000 ng·h/mL | > 500 ng/mL | > 1 h | good pharmacokinetic properties | significantly better than that of isomer 1-b | significantly better than that of the reference PF-06700841
Cn1cc(Nc2nccc(C3=C[C@@H]4CC[C@H](C3)N4C(=O)[C@H]3C[C@@H]3F)n2)cn1 [Compound 2-a, ((1R,2S)-2-fluorocyclopropyl)((1S,5R)-3-(2-((1-methyl-1H-pyrazol-4-yl)amino)pyrimidin-4-yl)-8-azabicyclo[3.2.1]oct-2-en-8-yl)methanone] | 300 to 1000 nM |  |  |  |  |  |  |  | 
Cn1cc(Nc2nccc(C3=C[C@H]4CC[C@@H](C3)N4C(=O)[C@H]3C[C@@H]3F)n2)cn1 [Compound 2-b, ((1R,2S)-2-fluorocyclopropyl)((1R,5S)-3-(2-((1-methyl-1H-pyrazol-4-yl)amino)pyrimidin-4-yl)-8-azabicyclo[3.2.1]oct-2-en-8-yl)methanone] | 100 to 300 nM |  |  |  |  |  |  |  | 
Cn1cc(Nc2nccc(C3=CC4CCC(C3)N4C(=O)[C@@H]3C[C@H]3F)n2)cn1 (stereo partly drawn) [Compound 1, ((1S,2R)-2-fluorocyclopropyl)(3-(2-((1-methyl-1H-pyrazol-4-yl)amino)pyrimidin-4-yl)-8-azabicyclo[3.2.1]oct-2-en-8-yl)methanone] | < 100 nM |  |  |  |  |  |  |  | 
Cn1cc(Nc2nccc(C3=C[C@H]4CC[C@@H](C3)N4C(=O)[C@@H]3C[C@H]3F)n2)cn1 [Compound 1-b, ((1S,2R)-2-fluorocyclopropyl)((1R,5S)-3-(2-((1-methyl-1H-pyrazol-4-yl)amino)pyrimidin-4-yl)-8-azabicyclo[3.2.1]oct-2-en-8-yl)methanone] | < 100 nM | < 100 nM | A (F>50% is shown as A) | 500 to 1000 ng·h/mL | 300 to 500 ng/mL | > 1 h | good pharmacokinetic properties |  | significantly better than that of the reference PF-06700841
